Assay results taken from patent US20220274945A1, “SUBSTITUTED THIOPHENE CARBOXAMIDES AND DERIVATIVES THEREOF AS MICROBICIDES” (Bayer Aktiengesellschaft, priority 2019, published 2022).

Assays:
[1] = system: Xanthomonas campestris pv. campestris; assay: In vivo preventive test on Xanthomonas campestris pv. campestris (black rot on cabbage); conditions: 31 ppm, cabbage plants sprayed 72 hours before inoculation; evaluated 8 or 10 days after inoculation
Experimental: The tested active ingredients were prepared by homogenization in a mixture of acetone/Dimethyl sulfoxide/Tween®, and then diluted with water to obtain the desired active material concentration.
The young plants of cabbage were treated by spraying the active ingredient prepared as described above.
Control plants were treated only with an aqueous solution of acetone/Dimethyl sulfoxide/Tween®.
After 72 hours, the plants were contaminated by spraying the leaves with an aqueous bacteria suspension of Xanthomonas campestris pv. campestris. The contaminated cabbage plants were incubated for 8 or 10 days at 27° C. at 95% relative humidity.
The test was evaluated 8 or 10 days after the inoculation. 0% means an efficacy which corresponds to that of the control plants while an efficacy of 100% means that no disease was observed.

[2] = system: salicylate responsive promoter sequence of the PR1 (pathogenesis-related protein I) gene (AT2G14610); assay: Induction of defense gene expression in Arabidopsis thaliana (PR1 promoter-GFP reporter plants); type: in vivo; conditions: 300 ppm, sprayed; 3rd day after spraying; mock treated leaves set as 1.00
Experimental: Arabidopsis thaliana reporter plants containing the coding sequence of a green fluorescent protein (GFP) linked to the salicylate responsive promoter sequence of the PR1 (pathogenesis-related protein I) gene (AT2G14610) were grown for five days and then sprayed with compounds. On the 3rd day after spraying, plant fluorescence was assessed with a MacroFluo instrument from Leica Microsystems (Wetzlar, Germany). Fluorescences were quantified with the Meta-Morph Microscopy Automation & Image Analysis Software (Molecular Devices, Sunnyvale, Calif., United States).
Background fluorescence in mock treated leaves was set as 1.00.

SMILES | efficacy [1] | relative fluorescence value [2]
O=C(NC1(C(=O)O)CC1)c1cc(Br)c(Br)s1 [CMP1] | 10% | 
O=C(NC1(C(=O)O)CC1)c1sc(Br)c(Br)c1Br [I.14] | at least 80% | 
O=C(O)c1ccccc1O [Salicylic acid] |  | 2.70
